According to paper PMC8236048, “Pharmaceutical design of a delivery system for the bacteriocin lacticin 3147” (Drug Delivery and Translational Research, 2021):

Columns and labels:
[1] = cited from earlier work
Excerpt: (§1) Gardiner et al., however, reported that α-chymotrypsin alone degrades lacticin 3147 [21]. Lacticin 3147 is heat stable, pH stable, and active at a neutral pH [9]. However, quantitative data on the amount of lacticin 3147 dissolved, i.e. its solution concentration, is rarely reported. In fact, only a handful of quantitative solubility studies on bacteriocins can be found in the literature [[ ...

[2] = molecular target: T1, pepsin (Sus scrofa, UniProt P00791); conditions: cited from earlier work
T1 construct: purchased Sigma-Aldrich Ireland Ltd
T1 sequence (P00791 60-385): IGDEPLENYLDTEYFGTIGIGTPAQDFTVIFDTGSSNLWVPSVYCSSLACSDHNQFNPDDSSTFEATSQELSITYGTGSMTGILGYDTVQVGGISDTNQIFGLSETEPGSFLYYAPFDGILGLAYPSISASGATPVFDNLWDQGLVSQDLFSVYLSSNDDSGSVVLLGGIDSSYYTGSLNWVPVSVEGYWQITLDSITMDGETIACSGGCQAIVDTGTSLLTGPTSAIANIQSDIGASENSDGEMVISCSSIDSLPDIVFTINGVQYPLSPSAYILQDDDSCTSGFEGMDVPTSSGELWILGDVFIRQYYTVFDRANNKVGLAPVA
Excerpt: as §1

[3] = system: trypsin; conditions: cited from earlier work
Excerpt: as §1

[4] = molecular target: T1, pepsin; assay: Enzyme degradation of lacticin 3147 by pepsin (activity, MALDI-TOF, RP-HPLC); format: in vitro ADME; conditions: 25 mg/ml pepsin, 3 h, 37 °C, pH 2.29; then growth curve at 400 nM peptides
Protocol: Lacticin 3147 production was confirmed by matrix-assisted laser desorption ionization-time of flight (MALDI-TOF) mass spectrometry using sinapinic acid as the matrix. About 0.7 μl of the matrix solution (sinapinic acid, 4 mg/ml in 50% acetone/50% methanol) was added to the target plate and left to evaporate (30 s) at ambient conditions. Individual peptides (Ltnα or Ltnβ) were resuspended in 70% IPA and mixed at a 1:1 volume ratio with a 10-mg/ml stock solution of sinapinic acid in 60% ACN with 0.1% TFA. About 0.3 μl of this peptide-matrix solution was then added to the matrix layer previously applied to the plate and evaporated at ambient conditions. The plate was inserted into a MALDI-TOF Ultraflex mass spectrometer (Bruker) and analysed using reflectron positive 700–3500 Da mode. 100 shots were fired at 88% intensity. This method was also used for the analyses of samples from the enzyme degradation studies.
All lacticin 3147 samples were filtered through a 0.2-µm PES filter before analysis by RP-HPLC using an Agilent 1200 Infinity Series HPLC (Agilent Technologies, USA). The HPLC separations were carried out on an Aeris 3.6 µm Peptide 100 Å 250 × 4.6 mm, liquid chromatography column with a flow rate of 0.8 ml/min, and with 0.1% trifluoroacetic acid (TFA) in water as aqueous phase-A and 0.1% TFA in acetonitrile (ACN) as organic phase-B. The total run time was 51 min. The mobile phase started with 30:70 A:B for 3 min and change linearly to 35:65 A:B over 30 min. The organic phase was then adjusted to 100% within 1 min and continued to flow for 5 min. After this, the mobile phase returned to the initial ratio to stabilize the chromatographic system. The detector was set at 214 nm. The peak area (mAU) was plotted against the concentration (1.56–500 µg/ml) to make a calibration curve. The coefficients of determination (R^2 values) were 0.9963 and 0.9983 for Ltnα and Ltnβ respectively. This method was subsequently used for quantitative analysis of Ltnα and Ltnβ.
Trypsin and α-chymotrypsin stock solutions (50 mg/ml) were resuspended in water. Pepsin (50 mg/ml) was resuspended in 0.02 M HCL. About 1 mg/ml individual solutions of Ltnα and Ltnβ in 70% IPA were filtered and diluted (1 in 20) in sterile PBS to give a final peptide concentration of 50 µg/ml. After this, 5.3 µl Ltnα and 4.6 µl Ltnβ were added to the same well of a 96-well plate. The pH of the lacticin 3147-pepsin solution was 2.29. Control wells consisting of Ltnα and Ltnβ together, Ltnα alone, and Ltnβ alone with no enzyme were included. The 96-well plate was incubated for 3 h at 37 °C to allow the enzyme to act. After incubation, the wells were filled to 50 μl with PBS and 150 μl of diluted bacterial cell culture (L. monocytogenes at an OD of 0.1) was added to each well. The final peptide concentration of 400 nM (1.31 µg/ml Ltnα, 1.14 µg/ml Ltnβ) was obtained when the wells were filled to 200 µl. Blanks were set up in triplicate with media only and PBS only. The three control wells were also set up with bacterial culture and each enzyme only. […] The effect of the proteases pepsin, α-chymotrypsin, and trypsin on the lacticin 3147 peptides was determined by MALDI-TOF mass spectrometry. […] After 3 h, 1 µl was removed from each sample and it was analysed by MALDI-TOF mass spectrometry. […]
Pepsin’s effect on lacticin 3147 was also investigated by RP-HPLC. […] After incubation, aliquots were taken, filtered, and analysed by RP-HPLC to determine if pepsin degrades Ltnα or Ltnβ to any extent.

[5] = system: L. monocytogenes; conditions: cited from earlier work
Excerpt: (§2) Approximately 223,900 C. difficile infections and 12,800 resulting deaths were reported in the USA in 2017 [17]. Treatment failures and recurrences of infection after the use of antibiotics are increasingly common, with a 2–38% failure rate for vancomycin and 8–50% for metronidazole. A more virulent strain of C. d ...

[6] = system: C. difficile; conditions: antimicrobial-resistant bacteria; cited from earlier work
Excerpt: as §2

[7] = system: methicillin-resistant S. aureus (MRSA); conditions: cited from earlier work
Excerpt: as §2

[8] = system: eukaryotic cells; conditions: cited from earlier work
Excerpt: as §2

[9] = system: L. monocytogenes ATCC1916; assay: Well diffusion assay, lacticin 3147 SLNs vs free peptide; format: cell-based; conditions: 6-mm wells, 12.5 µL α + 12.5 µL β component, 0.2 µm filtered, free peptide in water at the total peptide content of the SLNs, mean ± SD
Protocol: The activity of the lacticin 3147 SLNs was evaluated using the well diffusion assay method, on TSA supplemented with 6 g/L yeast. The inhibition zones were reported in millimetre (mm) using electronic Vernier callipers. […] Wells were bored in the agar after it hardened using a sterile 6-mm cork borer. α-SLN and β-SLN were filtered using a 0.2-μm PES filter (SLNs can pass through), and 12.5 μL of each was added to the same well. The blank SLNs were used as negative controls (25 μL). […] The free peptides were filtered again using a 0.2-μm PES filter before addition to the wells to ensure sterility. All tests were performed in triplicate.

For lacticin 3147, the heat stability [1] is given as “heat stable”, the pH stability [1] is given as “pH stable” and the “effect of pepsin on activity” value [2] is given as “unaffected”. For the same substance, the effect of trypsin [3] was “degraded and inactivated”, the “activity against L. monocytogenes ATCC 1916 after incubation with pepsin” value [4] was “remains active” and the “activity against L. monocytogenes” value [5] was “active at nanomolar concentrations”. The “activity against C. difficile” value [6] was “active at nanomolar concentrations”, the “activity against methicillin-resistant S. aureus (MRSA)” value [7] was “active at nanomolar concentrations” and the “toxicity to eukaryotic cells” value [8] was “non-toxic”. The zone of inhibition [9] was 12.9 ± 0.3 mm.
